Laboratory results published in publication PMC10247784, “Physiological activation of human and mouse bitter taste receptors by bile acids” (Communications Biology, 2023).

Target: T1, mouse Tas2r108 (Mus musculus, UniProt Q9JKT3)
T1 construct: expressed in transfected cells; host or cells: HEK293T-Gα16gust44
T1 sequence (Q9JKT3 1-297): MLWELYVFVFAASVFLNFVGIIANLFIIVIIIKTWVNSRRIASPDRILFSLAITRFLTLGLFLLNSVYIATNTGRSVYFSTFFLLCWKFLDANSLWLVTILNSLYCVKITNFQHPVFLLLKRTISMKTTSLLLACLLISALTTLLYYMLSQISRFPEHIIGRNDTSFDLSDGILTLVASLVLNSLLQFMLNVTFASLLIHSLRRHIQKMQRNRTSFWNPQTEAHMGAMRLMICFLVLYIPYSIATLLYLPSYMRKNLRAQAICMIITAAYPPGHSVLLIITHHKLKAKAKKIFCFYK
Test: Calcium imaging assay (FLIPR), HEK293T-Gα16gust44 cells transfected with mouse Tas2r108
Format: cell-based
Experimental: This set of bile acids was chosen because of their commercial availability in high purities, their diversity within the class of bile acids and their previous detection and quantitation in human blood. Stock solutions were prepared in DMSO.
As basal growth medium for the HEK293T-Gα16gust44 cell line[17],[59] served Dulbecco’s modified eagle medium (DMEM) (Thermo Fisher Scientific, Darmstadt, Germany) supplemented with 10 % fetal bovine serum (Sigma-Aldrich, Steinheim, Germany), 2 mM L-glutamine (Sigma-Aldrich, Steinheim, Germany), 100 units/ml penicillin (Sigma Aldrich, Steinheim, Germany) and 100 µg/ml streptomycin (Sigma Aldrich, Steinheim, Germany). Growth conditions were 37 °C, 5 % CO2 and saturated air-humidity[60].
HEK293T-Gα16gust44 cells were seeded on poly-D-lysine (10 µg/ml) coated 96-well plates to reach a confluence of 40-60 % the next day. For transient transfection 150 ng of plasmid DNA containing the receptor of interest and 0.3 µl lipofectamine 2000 (Thermo Fisher Scientific, Darmstadt, Germany) per well were used and transfection took place according to the manual of lipofectamine 2000. […] The empty vector DNA (mock) was transfected as negative control[14],[41].
Cells were loaded using the calcium-sensitive fluorescent dye Fluo-4-AM (Abcam, Cambridge, Great Britain) in the presence of 2.5 mM probenecid (Sigma-Aldrich, Steinheim, Germany) the day after transfection[13],[41]. 1 h after loading, cells were washed with C1 buffer using a BioTek Cell Washer, incubated in the dark for half an hour and washed again. For automated agonist application and measurement of fluorescence changes, a FLIPR^TETRA device (Molecular Devices, San José, United States) was used. Viability of cells was tested by application of 100 nM Somatostatin 14 (Bachem, Bubendorf, Switzerland)[42].
Measured data were negative control corrected by subtracting the signal of the mock-transfected cells and exported to Microsoft Excel using the FLIPR software ScreenWorks 4.2. In Microsoft Excel software, standardization of maximum fluorescence intensities to the basal fluorescence and normalization to the buffer-only control was done to calculate the relative fluorescence changes (ΔF/F).
Initial screening experiments performed in duplicate wells were confirmed by at least one replication and representative traces were selected for display. All dose-response relationships were determined by three independent experiments (biological replicates) performed in duplicates (technical replicates). Threshold concentrations, defined as lowest substance concentrations leading to statistically significant elevated fluorescence changes in receptor-transfected cells compared with empty vector-transfected cells, were determined using SigmaPlot with Student’s t-test to evaluate statistical significance (p < 0.01).

## C[C@H](CCC(=O)O)[C@H]1CC[C@H]2[C@@H]3CC[C@@H]4C[C@H](O)CC[C@]4(C)[C@H]3C[C@H](O)[C@]12C [Deoxycholic Acid, deoxycholic acid]
Time 0 s
  RLU: 0 RLU
Time 2 s
  RLU: 10.4901 RLU
Time 4 s
  RLU: 7.695 RLU
Time 6 s
  RLU: 13.3996 RLU
Time 8 s
  RLU: 21.0752 RLU
Time 12 s
  RLU: 15.5762 RLU
Time 14 s
  RLU: 3.43 RLU
Time 16 s
  RLU: -9.281 RLU
Time 18 s
  RLU: 0.8467 RLU
Time 137.562 s
  RLU: 460.71 RLU
Time 143.562 s
  RLU: 496.814 RLU
Time 149.562 s
  RLU: 503.436 RLU
Time 155.562 s
  RLU: 499.263 RLU
Time 161.562 s
  RLU: 506.022 RLU
Time 167.562 s
  RLU: 509.176 RLU
Time 173.562 s
  RLU: 514.108 RLU
Time 179.562 s
  RLU: 522.581 RLU
Time 185.562 s
  RLU: 531.86 RLU
Time 191.562 s
  RLU: 528.694 RLU
Time 197.562 s
  RLU: 533.421 RLU
Time 203.562 s
  RLU: 538.761 RLU
Time 209.562 s
  RLU: 521.511 RLU
Time 215.562 s
  RLU: 533.378 RLU
Time 221.562 s
  RLU: 492.546 RLU
Time 227.562 s
  RLU: 477.486 RLU
Time 233.562 s
  RLU: 488.911 RLU
Time 239.562 s
  RLU: 493.745 RLU
Time 245.562 s
  RLU: 495.953 RLU
Time 293.562 s
  RLU: 458.186 RLU
Time 299.562 s
  RLU: 441.037 RLU
Time 305.562 s
  RLU: 416.756 RLU
Time 311.562 s
  RLU: 430.852 RLU
Time 317.562 s
  RLU: 450.794 RLU
Time 323.562 s
  RLU: 427.048 RLU
Time 329.562 s
  RLU: 431.797 RLU
Time 335.562 s
  RLU: 432.3 RLU
Time 341.562 s
  RLU: 422.32 RLU
Time 347.562 s
  RLU: 429.258 RLU
Time 353.562 s
  RLU: 427.233 RLU
Time 359.562 s
  RLU: 399.693 RLU
P < 0.01 vs empty vector
  Activation threshold concentration Tas2r108: 10 µM
Time 18.797 s
  RLU: 15.4 RLU
Time 20.797 s
  RLU: -4.333 RLU
Time 22.797 s
  RLU: -28.7534 RLU
Time 24.797 s
  RLU: -22.8768 RLU
Time 26.797 s
  RLU: 16.5718 RLU
Time 28.797 s
  RLU: 18.9437 RLU
Time 30.797 s
  RLU: 58.8166 RLU
Time 32.797 s
  RLU: 83.6402 RLU
Time 34.797 s
  RLU: 79.9664 RLU
Time 36.797 s
  RLU: 112.495 RLU
Time 38.797 s
  RLU: 144 RLU
Time 40.797 s
  RLU: 169.562 RLU
Time 42.797 s
  RLU: 181.196 RLU
Time 44.797 s
  RLU: 204.676 RLU
Time 46.797 s
  RLU: 240.06 RLU
Time 48.797 s
  RLU: 220.167 RLU
Time 50.797 s
  RLU: 217.063 RLU
Time 52.797 s
  RLU: 250.29 RLU
Time 54.797 s
  RLU: 263.514 RLU
Time 56.797 s
  RLU: 298.678 RLU
Time 58.797 s
  RLU: 286.664 RLU
Time 60.797 s
  RLU: 326.636 RLU
Time 62.797 s
  RLU: 300.232 RLU
Time 64.797 s
  RLU: 322.977 RLU
Time 66.797 s
  RLU: 299.438 RLU
Time 68.797 s
  RLU: 333.279 RLU
Time 70.797 s
  RLU: 356.797 RLU
Time 72.797 s
  RLU: 351.722 RLU
Time 74.797 s
  RLU: 354.974 RLU
Time 76.797 s
  RLU: 350.201 RLU
Time 78.797 s
  RLU: 373.335 RLU
Time 80.797 s
  RLU: 363.865 RLU
Time 82.797 s
  RLU: 378.202 RLU
Time 84.797 s
  RLU: 377.793 RLU
Time 86.797 s
  RLU: 374.495 RLU
Time 88.797 s
  RLU: 427.432 RLU
Time 90.797 s
  RLU: 391.234 RLU
Time 92.797 s
  RLU: 431.574 RLU
Time 94.797 s
  RLU: 429.345 RLU
Time 96.797 s
  RLU: 437.253 RLU
Time 98.797 s
  RLU: 431.746 RLU
Time 100.797 s
  RLU: 440.351 RLU
Time 102.797 s
  RLU: 434.297 RLU
Time 104.797 s
  RLU: 432.91 RLU
Time 106.797 s
  RLU: 451.262 RLU
Time 108.797 s
  RLU: 460.201 RLU
Time 110.797 s
  RLU: 466.157 RLU
Time 112.797 s
  RLU: 486.092 RLU
Time 114.797 s
  RLU: 411.046 RLU
Time 116.797 s
  RLU: 482.073 RLU
Time 118.797 s
  RLU: 468.374 RLU
Time 120.797 s
  RLU: 468.931 RLU
Time 122.797 s
  RLU: 478.657 RLU
Time 124.797 s
  RLU: 472.922 RLU
Time 126.797 s
  RLU: 476.391 RLU
Time 128.797 s
  RLU: 502.505 RLU
Time 130.797 s
  RLU: 473.229 RLU
Time 132.797 s
  RLU: 511.515 RLU
Time 134.797 s
  RLU: 493.882 RLU
Time 136.797 s
  RLU: 440.117 RLU
